# According to US9169285B2, “Methods for purifying steviol glycosides and uses of the same” (The Coca-Cola Company, priority 2011, dated 2015):
# Entries after “also recorded” stand apart in the source; their conditions may differ.
# How the values were obtained:
# [1] = Solubility studies of Reb X in carbon-treated water and citrate buffer; type: physicochemical
# Protocol: (§1) Citric buffer was prepared by mixing 1.171 g/L citric acid, 0.275 g/L sodium citrate and 0.185 g/L sodium benzoate with carbon-treated water, with a final pH of 3.22. The mixtures were moderately stirred at room temperature. The Reb X sample was then evaluated against the two control Reb A and Reb D samples in water and citric buffer at room temperature (RT) and at 4° C. in an ice bath by one experienced panelist for any tasting quality determinations using the controlled, multi-sip and swallow taste method shown below:
# The samples used to evaluate the taste properties in Example 2 were also used for solubility studies.
# panelists = assay: Sensory properties of steviol glycosides in acidified water (pH 3.0) at 500 mg/L, 20 panelists; type: in vivo, human; conditions: acidified water pH 3.0, 20 panelists
# Protocol: The sensory properties of Reb X were evaluated in acidified water (pH 3.0 by phosphoric acid) at 500 mg/L concentration by 20 panelists.
# one experienced panelist = assay: Taste evaluation of Reb X against Reb A and Reb D, controlled multi-sip and swallow taste method; type: in vivo, human
# Protocol: The taste properties of a sample of Reb X were studied against Rebaudioside A (Reb A) and Rebaudioside D (Reb D) samples. Reb A was obtained from Cargill (lot #1040) and Reb-D was obtained from PureCircle (lot #Nov. 3, 2008).
# The samples were prepared at 500 ppm for sweetness evaluation by adding moisture compensated mass into a 100 mL sample of carbon-treated water and citric buffer solutions.
# as §1
# 1. Take first sip (˜1.8 mL) of control and swallow. Wait for 15-25 sec, then take second sip of control and wait for 15-25 sec.
# 2. Take first sip of the experimental sample, wait for 15-25 sec, then take second sip. Compare to second sip of control.
# 3. Repeat steps #1 and #2 for the third and fourth sips of the control and experimental samples to confirm the initial finding.
# [2] = test system: semi-trained panel members; assay: Sensory comparison of Reb X and Reb A, iso-sweet samples of 8% sucrose equivalent sweetness; type: in vivo, human
# Protocol: To compare the sensory attributes between Reb X and Reb A, iso-sweet samples having 8% sucrose equivalent sweetness were made with filtered water as shown in Table 8. An 8% sugar solution in water at room temperature was used as a control. An 8% sugar solution in the acidified solution was used as the control. The samples prepared with filtered water were evaluated by 34 semi-trained panel members at room temperature. The samples prepared with acidified water were evaluated by 23 semi-trained panel members at room temperature. Samples were given to the panel members sequentially and coded with triple digit numbers. The order of sample presentation was randomized to avoid order of presentation bias. Water and unsalted crackers were provided in order to cleanse the palate. The panel members were asked to rate different attributes including sweetness onset, total sweetness, rounded sweetness, bitterness, acidity, leafy note, licorice, astringency, mouthfeel, mouth coating, sweet lingering, and bitter lingering. Samples were rated on a scale of zero (0) to ten (10), with zero indicating immediate onset, no intensity, watery/low viscosity, or very sharp peak, and ten indicating very delayed onset, high intensity, thick/high viscosity, or very round peak. One-way single factor ANOVA was used to analyze sensory results, where α=0.05.
# [3] = Solubility of the Reb X stock solution in citric buffer; type: physicochemical; conditions: Reb X 0.06% (w/v) in citric buffer, up to 52° C., ca. 15-20 minutes
# Protocol: (§2) The isosweetness levels of Reb X in a citric buffer system at room temperature and 4° C. were evaluated. A 600 ppm stock solution of Reb X was prepared by adding a mass of 0.15 g into a 250 mL sample of citric buffer (CB) solution. The mixture was moderately stirred at warmer temperature (up to ca. 52° C.) on a heated stirrer for about 15-20 minutes and then cooled. The citric buffer was prepared by adding 1.6 g citric acid, 0.6 g potassium citrate and 0.253 g sodium benzoate in 1 L of carbon-treated water. The pH of the mixture was 3.1. Seven diluted Reb X solutions at […], 25, 50, 100, 200, 300, 400 and 500 ppm were prepared by adding a 2.08, 4.17, 8.33, 16.67, 25.00, 33.33 and 41.67 mL Reb X stock solution, respectively, into each 50 mL solution of CB. The controls of 0.75%, 2%, 4%, 6%, 8%, 10% and 15% sucrose equivalence (SE) were also prepared by adding sugar (w/v) into the CB. The mixtures were moderately stirred and then ready for the isosweetness determination test. The Reb X samples were then evaluated against the control sugar samples in citric buffer at room temperature (RT) and 4° C. (in an ice bath) by one experienced taster for an isosweetness determination using the controlled, multi-sip and swallow taste method.
# one experienced taster = assay: Isosweetness determination of Reb X in citric buffer against sucrose controls; type: in vivo, human
# Protocol: as §2
# [4] = Taste comparison of Reb X and Reb A in beverage formulations; type: in vivo
# panel of trained tasters = assay: Reb X sweetness vs. concentration, matched to sucrose reference solutions; type: in vivo, human; conditions: Sweetness Equivalent (SE) 2.5%; Reb X 98% purity; water, room temperature
# Protocol: 2.5%, 5.0%, 7.5%, and 10.0% sucrose solutions were prepared in neutral (7.0 pH) and acidified water (3.2 pH) as reference samples. Solutions containing Reb X (98% purity) were prepared to match the sweetness of each sucrose reference in neutral and acidified water. Samples were tasted and verified by a panel of trained tasters in water at room temperature.
smiles,measurement,setting,value
"C=C1C[C@@]23CCC4[C@](C)(C(=O)OC5OC(CO)C(O)C(OC6OC(CO)C(O)C(O)C6O)C5OC5OC(CO)C(O)C(O)C5O)CCC[C@@]4(C)[C@@H]2CCC1(OC1OC(CO)C(O)C(OC2OC(CO)C(O)C(O)C2O)C1OC1OC(CO)C(O)C(O)C1O)C3 (stereo partly drawn) [Reb X, 13-[(2-O-β-D-glucopyranosyl-3-O-β-D-glucopyranosyl-β-D-glucopyranosyl)oxy]ent kaur-16-en-19-oic acid-[(2-O-β-D-glucopyranosyl-3-O-β-D-glucopyranosyl-β-D-glucopyranosyl)ester]]","Solubility, initial solubility test","[1]; 500 ppm in citrate buffer, compared with Reb D and Reb A","similar, limited but significantly greater solubility than that of Reb D and significantly less solubility than Reb A"
same,Estimated time to solubilize,[1]; Reb X 0.01% in carbon-treated water,15 min
same,Estimated time to solubilize,[1]; Reb X 0.01% in citrate buffer,25 min
same,Estimated time to solubilize,[1]; Reb X 0.02% in carbon-treated water,25 min
same,Estimated time to solubilize,[1]; Reb X 0.02% in citrate buffer,25 min
same,Estimated time to solubilize,[1]; Reb X 0.04% in carbon-treated water,33 min
same,Estimated time to solubilize,[1]; Reb X 0.04% in citrate buffer,35 min
same,Estimated time to solubilize,[1]; Reb X 0.05% in carbon-treated water,39 min
same,Estimated time to solubilize,[1]; Reb X 0.05% in citrate buffer,42 min
same,Estimated time to solubilize,[1]; Reb X 0.075% in carbon-treated water,55 min
same,Estimated time to solubilize,[1]; Reb X 0.075% in citrate buffer,55 min
same,Estimated time to solubilize,[1]; Reb X 0.10% in carbon-treated water,106 min
same,Estimated time to solubilize,[1]; Reb X 0.10% in citrate buffer,106 min
same,Estimated time to solubilize,[1]; Reb X 0.15% in carbon-treated water,Insoluble after 20 hours
same,Estimated time to solubilize,[1]; Reb X 0.15% in citrate buffer,Insoluble after 20 hours
same,Quality of sweet taste (comment),"panelists; 500 ppm (sucrose 10,000 ppm)",Clean
same,Taste profile compared with known steviol glycosides,panelists; 500 ppm,superior taste profile to already known steviol glycosides
same,Taste Properties,"one experienced panelist; 500 ppm in citric buffer (pH 3.22), room temperature",temporal profile and quality similar to sucrose; also recorded: Clean sweet taste. Broad and full sweetness profile; also recorded: Moderate sweetness linger aftertaste similar to aspartame
same,"Astringency, sweetness depth and bitterness notes","one experienced panelist; 500 ppm, citrate buffer system, compared with Reb A",did not have the astringency or sweetness intense (depth) and bitterness notes compared to that of the Reb A
same,Taste quality compared with Reb A and Reb D,"one experienced panelist; 500 ppm, citric buffer",much better than Reb A or Reb D
same,"Tasting quality, temporal profile and sweetness linger","one experienced panelist; 500 ppm, citric buffer, compared with Reb A",did not display a pure sugar-like tasting quality but rather contained a fatty-like or broader sweet temporal profile and less sweetness linger than that of Reb A
same,"Sweetness onset, non-sweet taste and bitterness lingering compared with Reb A","[2]; acidified water (250 ppm citric acid, pH 3.2), 23 panel members, FIG. 12","faster sweetness onset, reduced non-sweet taste (bitterness, sour, astringency) and bitterness lingering"
same,Sweetness compared with Reb A,"[2]; acidified water (250 ppm citric acid, pH 3.2), Reb X 0.0423% vs Reb A 0.0510%, 23 panel members, FIG. 12",perception of higher sweetness of Reb X over Reb A is significant
same,"Bitterness, astringency and bitter lingering compared with Reb A","[2]; filtered water, Reb X 0.0423% vs Reb A 0.0510%, 34 panel members, scale 0-10, FIG. 11","reduced perception of bitterness, astringency and bitter lingering compared to Reb A"
same,Solubility and appearance,[3],very soluble and clear (colorless)
same,Off-flavors,one experienced taster; Reb X 12.5-600 ppm in citric buffer at 4° C.,"No off-flavors at any Reb X concentrations in CB at 4 °C were detected, except at least ca. 300 ppm which noticeably had a longer sweetness lingering"
same,Sweetness intensity difference between RT and 4° C.,"one experienced taster; Reb X concentration range, direct comparison with control sucrose at similar temperatures",no significant sweetness intensity difference between RT and 4 °C
same,Sweetness tasting quality,"one experienced taster; all Reb X concentrations (12.5-600 ppm), citric buffer",pleasant sweetness tasting quality with a slight delay of sweetness onset and no bitterness
same,Taste properties compared with Reb A drink,"[4]; flavored zero calorie black tea drink, 250 ppm",much cleaner in finish with less sweetness linger and a more rounded overall sweetness profile
same,Taste properties compared with Reb A drink,"[4]; zero calorie enhanced water drink, 200 ppm",cleaner in finish and had reduced sweetness linger and a more rounded overall sweetness taste quality
same,Reb X level closest in sweetness level to a 11.5 Brix high fructose corn syrup sweetened orange flavored sparkling beverage,[4]; zero calorie orange-flavored sparkling beverage base,500 ppm
same,Taste compared with Reb A-containing formulations,"[4]; zero calorie orange-flavored sparkling beverage, Reb X 400 to 750 ppm in 50 ppm increments",tasted significantly better than comparable Reb A-containing formulations
same,Reb X Concentration matching the sucrose reference,panel of trained tasters,48 ppm
